The structures appear in SMILES notation.

One assay relates to Aedes albopictus females. The assay can be described thus: in vivo cloth patch repellent bioassay. On the procedure: (§1) Cloth patch bioassays were conducted by using in vivo bioassay system described by Katritzky et al. (2008, 2010), with minor modifications. Approximately 500 (±5%) mosquitoes, consisting primarily of females, were transferred into a test cage (45×45×45 cm) using an aspirator. A series of dosages of test compounds were tested to determine MED for repellency of the mosquitoes. MED refers to a concentration of the compound at which biting is less than or equal to 1% (i.e. less than or equal to 5 out of 500 females in the cage) during a 1 minute exposure time. A series of concentrations ranging between 6.25 to 100 μg/cm^2 were tested in the A&K bioassay.
(§2) A single test consisted of covering the hand of a volunteer with a soft-embossed long cuff poly glove (Atlantis Products, Mankato, Minn.), then by a powder-free latex glove (Diamond Grip, Microflex Corporation, Reno, Nev.). The arm was then covered with a knee high stocking (Leggs® Everyday Knee Highs, Winston-Salem N.C. 27102) to avoid the contact of treated muslin cloth with the skin. A plastic sleeve constructed of polyvinyl was then placed around the arm. Velcro strips were used to fix the plastic sleeve around the arm. About half-way between the wrist and elbow, a 4×7.5 cm slit in the plastic sleeve was used to assess mosquito landing and biting behavior. This opening permitted the attractive odors from the skin surface to emanate out and attract mosquitoes through this opening. During testing, this 30 cm^2 open area was covered with a piece of treated muslin cloth. Because of constraint of man power, only one volunteer who was provided written informed consent participated in this study. A protocol approved by the University of Mississippi Human Use Institutional Review Board (IRB protocol #15-070) was followed.
(§3) Stock solutions with concentration of 80 μg/ul were prepared in ethanol. Concentrations ranging between 6.25 to 100 μg/cm^2 were selected for testing based on previous experience of the inventors with the A&K bioassay. A piece of muslin cloth measuring 8×13 cm in size was used. An area of 4×7.5 cm was marked in the center of muslin cloth. Approximately 2.5×7 cm pieces of cardboard were attached by staples on the sides of the muslin cloth. Treatments were applied to the marked area of the cloth in 215 μL volume using a pipetter. After drying, the treated muslin cloth was secured on the opening of the plastic sleeve by using an adhesive tape.
(§4) The test started when the arm with sleeve and treated muslin cloth was inserted into the mosquito cage. […] Residual activity was determined by exposing the females to the treated muslin cloth at an interval of 30 minutes. The treated muslin patch was kept on the arm after the initial treatment and tested every half an hour thereafter.
(§5) Testing started at the highest dose (100 μg/cm^2) and the dose was lowered to reach the MED. Because the mosquitoes show reduced behavioral activity upon repeated exposure to repellent odors from the arm, after 5 successive exposures of the treatments, the caged mosquitoes were allowed a 15 min recovery period.

For assay [1], the system named is Anopheles quadrimaculatus females. Nature of the assay: in vivo cloth patch repellent bioassay. How it is done: as §1, §2, §3, §4, §5
Assay [2] deals with Aedes aegypti females. The assay can be described thus: in vivo cloth patch repellent bioassay. The settings on record: for residual repellent activity: time post treatment at which activity lost: 12.5 μg/cm^2; for minimum effective dose (MED): cloth patch, 1 minute exposure. How it is done: as §1, §2, §3, §4, §5
The subject of assay [3] is Aedes aegypti females. Nature of the assay: in vitro A&K (Ali and Khan) repellent bioassay. In kind it is in vivo. Particulars: for residual repellent activity: time post treatment within range of MED: 11.7 μg/cm^2; for residual repellent activity: time post treatment up to which active / after which MED limit crossed: 23.4 μg/cm^2. An excerpt: The A&K (Ali and Khan) bioassay system is based on the concept that the mosquitoes are attracted to warm temperatures, and this system uses warm temperature to serve as stimulus for landing and feeding. The details of the A&K bioassay systems are given in Ali et al. (2017).
In summary, this in vitro system consisted of a 30×30×30 cm collapsible aluminum cage (Model 1450B, BioQuip Products, 2321 Gladwick Street, Rancho Dominguez, Calif. 90220, USA) with metal screens. On one panel of the cage, metal screen was replaced with a clear acrylic transparent sheet. […] The blood box had three sides covered with acrylic sheet while the front side was open to insert the feeding device. […] The sliding door served to contain the females inside the cage when the feeding device was pulled out for loading the treatment. This door was slid open when the feeding device was pushed in during the bioassay to expose the females to the treatment.
The feeding device had one 3×4 cm rectangular reservoir that contained the feeding solution. The feeding device was connected to the water circulator. The reservoir of the feeding device with feeding solution was covered with a chemical treated collagen sheet. To observe the landing and feeding of female mosquitoes, feeding solution in the reservoir was heated to match the human body temperature using a water circulator which was set at 37° C. The feeding solution had 3-4° C. higher temperature than the solid platform, and this increased temperature of the feeding solution became a better source of attraction and preference for the mosquitoes than the other parts of the feeding device.
The rectangular reservoir of the feeding device was filled with the CPDA 1+ATP solution having a few drops of green fluorescent traceable water-soluble dye to serve as a feeding source. A test was started when the 3×4 cm marked areas of collagen were treated with the desired chemical in a volume of 50 μL/[…]. The treated collagen sheet was then secured on the reservoir using a thin layer of high vacuum grease (Dow Corning Corporation, Midland, Mich. 48686). The feeding device was then pushed into the blood box and the sliding door was opened to expose females to the treatment.
Stock solutions were made in ethanol. All the dilutions were made in EtOH and applied in a volume of 50 μL covering […] of the collagen sheet. Minimum effective dosage (MED) values in this in vitro bioassay were determined using a method described by Katritzky et al. (2010).
The cage contained 200±10, 8-18 day old female mosquitoes. The number of mosquitoes landing and biting were recorded visually for 1 minute. Three or four cages were used at a time, and one treatment was evaluated in a single cage. The minimum dose at which 2 or less mosquitoes (i.e. less than or equal to 1% of 200 females in the cage) started feeding in 1 minute was the minimum effective dose (“MED”). Continuous exposure of the mosquitoes in the cage can result in reduced landing and biting, therefore, 3-4 cages were used and only one replication was completed for each chemical in a single cage. To ensure accuracy of the treatment, rectangular areas of (3×4 cm (12 cm^2) or 7.5×4 cm (30 cm^2) were marked on the collagen that matched the measurement of the rectangular liquid reservoirs. Treatments were applied in a volume of 50 μL (12 cm^2 area) or 107 μL (30 cm^2 area). Treated collagen sheets were secured on a feeding reservoir containing CPDA-1+ATP solution using a thin layer of grease (Dow Corning Corp, Midland, Mich.). The feeding device was pushed inside the blood box and the sliding door was […] to expose the females to the treatment.
To ensure the normal activity (≥10% landing), control treatment was repeated after every 5 replications, and the bioassay was stopped if the response was less than the control. The data is presented as MED values with the mean percentage biting (±SEM) in parenthesis. […]

Where [4] appears, read: 12 cm^2 surface area, Table 7/FIG. 7.
Where [5] appears, read: Table 13/FIG. 13, mixtures 6.25+6.25 μg/cm^2 versus individual applications, species not given.

Regarding `CCN(CC)C(=O)c1cccc(C)c1` [DEET, N,N-diethyl-meta-toluamide, reference compound], the “minimum effective dose (MED)” value in the assay on Aedes albopictus females is reported as 12.5 μg/cm^2; in assay [1] it was 6.25 μg/cm^2; in the assay with Aedes aegypti females [2], 12.5 μg/cm^2; with Aedes aegypti females [3] (setting [4]), 11.7 μg/cm^2; in the assay with Aedes aegypti females [3] (setting [5]) it was 25 μg/cm^2. Further, the “residual repellent activity: time post treatment at which activity lost” value with Aedes aegypti females [2] stood at 30 min. Also, in the assay on Aedes aegypti females [3], the “residual repellent activity: time post treatment within range of MED” value was found to be 30 min. The “residual repellent activity: time post treatment up to which active / after which MED limit crossed” value with Aedes aegypti females [3] turned out to be 120 min.

As to `CC1=CC[C@]2(C)CC[C@@H](C(C)C)[C@]2(O)CC1` [carotol], the “minimum effective dose (MED)” value with Aedes albopictus females amounted to 12.5 μg/cm^2; in assay [1], 6.25 μg/cm^2; with Aedes aegypti females [2], 25 μg/cm^2; in the assay on Aedes aegypti females [3] (setting [4]), 11.7 μg/cm^2; with Aedes aegypti females [3] (setting [5]) it was 25 μg/cm^2. In addition, in the assay on Aedes aegypti females [2], the “residual repellent activity: time post treatment at which activity lost” value is reported as “failed”. In addition, the “residual repellent activity like DEET: time post treatment up to” value in the assay on Aedes aegypti females [2] (25 μg/cm^2) and in the assay with Aedes aegypti females [2] (50 μg/cm^2) was 120 min in each case. Further, the “residual repellent activity: time post treatment within range of MED” value in the assay with Aedes aegypti females [3] is “failed”. The “residual repellent activity: time post treatment up to which active / after which MED limit crossed” value with Aedes aegypti females [3] came out at 60 min. In addition, the “residual repellent activity: time post treatment up to which active” value in the assay with Aedes aegypti females [3] (46.9 μg/cm^2) is 120 min. In addition, the “repellent activity” value in the assay with Aedes aegypti females [3] (compared with DEET) is on record as “comparable to DEET”.

Values taken from patent US11064704B2, “Natural product formulations with improved residual insect repellent/deterrent activity” (University of Mississippi, priority 2016, dated 2021).
